Reference: ChEMBL document CHEMBL5291721, “A preclinical secondary pharmacology resource illuminates target-adverse drug reaction associations of marketed drugs” (Nat Commun, 2023)

Legend:
[1] = molecular target: T1, Prostaglandin G/H synthase 1 (Rattus norvegicus, UniProt Q63921); format: functional
T1 sequence (Q63921 whole entry): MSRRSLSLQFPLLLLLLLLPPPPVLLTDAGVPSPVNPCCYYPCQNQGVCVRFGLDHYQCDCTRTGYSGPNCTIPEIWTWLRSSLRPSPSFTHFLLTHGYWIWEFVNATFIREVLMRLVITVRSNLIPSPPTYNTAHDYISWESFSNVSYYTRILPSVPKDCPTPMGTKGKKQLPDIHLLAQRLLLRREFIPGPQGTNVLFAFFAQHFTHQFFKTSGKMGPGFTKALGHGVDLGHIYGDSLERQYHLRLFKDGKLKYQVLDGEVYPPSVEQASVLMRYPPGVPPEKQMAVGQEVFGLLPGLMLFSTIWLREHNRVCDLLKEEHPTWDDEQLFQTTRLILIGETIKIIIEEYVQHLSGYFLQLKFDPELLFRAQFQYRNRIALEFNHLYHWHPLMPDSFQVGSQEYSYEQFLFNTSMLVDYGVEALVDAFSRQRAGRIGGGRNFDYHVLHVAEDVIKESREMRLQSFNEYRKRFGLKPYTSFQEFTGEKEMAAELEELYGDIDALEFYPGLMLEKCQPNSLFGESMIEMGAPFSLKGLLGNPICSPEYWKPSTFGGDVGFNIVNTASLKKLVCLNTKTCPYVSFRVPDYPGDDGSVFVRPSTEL

Motilin receptor = Motilin receptor (Homo sapiens, UniProt O43193)
Chain of Motilin receptor (O43193 whole entry): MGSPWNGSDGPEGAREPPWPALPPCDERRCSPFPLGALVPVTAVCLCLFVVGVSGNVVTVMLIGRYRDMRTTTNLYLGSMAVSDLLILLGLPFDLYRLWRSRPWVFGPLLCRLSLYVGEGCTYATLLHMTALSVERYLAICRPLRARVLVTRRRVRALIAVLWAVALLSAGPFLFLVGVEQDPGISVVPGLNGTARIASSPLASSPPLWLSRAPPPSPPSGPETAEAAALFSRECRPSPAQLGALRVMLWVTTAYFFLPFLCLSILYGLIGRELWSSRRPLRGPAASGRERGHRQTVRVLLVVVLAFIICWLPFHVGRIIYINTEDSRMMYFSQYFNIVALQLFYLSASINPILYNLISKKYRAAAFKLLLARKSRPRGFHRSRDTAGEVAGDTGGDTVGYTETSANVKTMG

[2] = molecular target: Sodium-dependent noradrenaline transporter (Homo sapiens, UniProt P23975)
Chain of Sodium-dependent noradrenaline transporter (P23975 whole entry): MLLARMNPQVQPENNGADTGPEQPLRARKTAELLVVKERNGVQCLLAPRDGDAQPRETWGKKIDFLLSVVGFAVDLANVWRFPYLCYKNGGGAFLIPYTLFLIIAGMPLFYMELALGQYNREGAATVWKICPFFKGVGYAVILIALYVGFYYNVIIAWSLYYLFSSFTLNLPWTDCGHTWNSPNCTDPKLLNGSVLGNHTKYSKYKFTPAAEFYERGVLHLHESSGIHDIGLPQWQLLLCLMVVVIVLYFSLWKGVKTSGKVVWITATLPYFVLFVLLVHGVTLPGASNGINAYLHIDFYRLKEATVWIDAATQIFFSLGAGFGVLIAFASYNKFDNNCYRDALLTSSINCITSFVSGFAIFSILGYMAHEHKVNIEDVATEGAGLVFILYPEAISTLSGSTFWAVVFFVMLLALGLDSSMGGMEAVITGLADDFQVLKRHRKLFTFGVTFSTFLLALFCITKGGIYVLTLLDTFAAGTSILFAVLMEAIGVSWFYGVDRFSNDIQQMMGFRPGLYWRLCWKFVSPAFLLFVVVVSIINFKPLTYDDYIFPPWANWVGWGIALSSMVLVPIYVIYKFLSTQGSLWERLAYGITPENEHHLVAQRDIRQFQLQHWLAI

Thromboxane A2 receptor = molecular target: T2, Thromboxane A2 receptor (Homo sapiens, UniProt P21731)
T2 sequence (P21731 whole entry): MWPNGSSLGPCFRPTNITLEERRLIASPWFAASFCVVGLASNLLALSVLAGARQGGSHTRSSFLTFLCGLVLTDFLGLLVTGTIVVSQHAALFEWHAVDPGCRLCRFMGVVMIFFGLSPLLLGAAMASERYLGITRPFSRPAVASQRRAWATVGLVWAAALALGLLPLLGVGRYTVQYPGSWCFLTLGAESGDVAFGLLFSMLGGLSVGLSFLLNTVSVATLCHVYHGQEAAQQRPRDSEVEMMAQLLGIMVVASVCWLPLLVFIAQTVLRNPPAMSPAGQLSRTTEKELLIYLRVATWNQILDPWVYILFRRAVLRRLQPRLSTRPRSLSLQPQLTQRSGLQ

[3] = molecular target: T3, Muscarinic acetylcholine receptor M1 (Homo sapiens, UniProt P11229)
T3 sequence (P11229 whole entry): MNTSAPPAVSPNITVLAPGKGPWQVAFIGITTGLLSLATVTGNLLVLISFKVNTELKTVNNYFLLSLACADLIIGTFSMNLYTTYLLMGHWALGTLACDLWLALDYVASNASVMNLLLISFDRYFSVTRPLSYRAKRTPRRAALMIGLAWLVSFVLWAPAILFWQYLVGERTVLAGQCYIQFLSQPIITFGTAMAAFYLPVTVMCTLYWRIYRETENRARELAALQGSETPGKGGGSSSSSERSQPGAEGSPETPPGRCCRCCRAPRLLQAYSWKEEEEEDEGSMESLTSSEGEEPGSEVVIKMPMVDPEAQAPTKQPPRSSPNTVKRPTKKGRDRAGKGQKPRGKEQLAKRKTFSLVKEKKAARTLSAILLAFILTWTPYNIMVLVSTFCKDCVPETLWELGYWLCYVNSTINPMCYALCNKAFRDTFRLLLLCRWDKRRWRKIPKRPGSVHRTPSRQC
Further: assay procedure not described here.

In the case of `CCOc1cc2ncc(C#N)c(Nc3ccc(OCc4ccccn4)c(Cl)c3)c2cc1NC(=O)/C=C/CN(C)C` [NERATINIB], the AC50 [1] is reported as greater than 30 µM, the AC50 (Motilin receptor) is reported as greater than 10 µM and the AC50 [2] is reported as greater than 10 µM. The AC50 (Thromboxane A2 receptor) was greater than 30 µM.
`COc1cc(C(=O)NCc2ccc(OCCN(C)C)cc2)cc(OC)c1OC` [TRIMETHOBENZAMIDE] gave an AC50 [3] greater than 30 µM.
